According to publication PMC6145916, “Interaction of mitochondrial fission factor with dynamin related protein 1 governs physiological mitochondrial function in vivo” (Scientific Reports, 2018):
Where no end group is shown, it is not given here.

Test system: fission and fusion proteins
Experiment: Expression of fission and fusion proteins, mitochondrial content and mitophagy in brain of wild-type mice
Format: in vivo, mouse
Settings: 3 mg/Kg/day, subcutaneous osmotic pump, 8 weeks, WT mice
Description: Five-week old R6/2 HD mice and their wild-type littermates (a total of 60 mice) were implanted subcutaneously with a 28-d Alzet osmotic pump with either P259-TAT or TAT control peptide (15 mice per group) to be delivered continuously at a rate of 3 mg/Kg/day, as previously described. All mice were implanted twice for a total of an 8-week treatment. 20 of the WT mice were implanted 3 times for a total of a 12-week treatment at 3 mg/Kg/day. All the experiments were in accordance with protocols approved by the Institutional Animal Care and Use Committee of Stanford University and were performed based on the National Institutes of Health Guide for the Care and Use of Laboratory Animals. All methods were carried out in accordance with the relevant guidelines and regulations. […]
membrane in brains of wild-type mice, while not affecting expression levels of other fission and fusion machinery proteins. Total lysate (a,c) and mitochondrial fraction (b) from brain […]
Represented western blots are cropped from full blots shown in the Expanded Western Blots section of the Supplementary Information. […]
Supplementary Figure 4. Principal component analysis of behaviors from wild-type mice treated with P259. a. The top 20% of behaviors collected from wild-type mice treated with 3 […]
ANOVA F- and mutual information scores for each behavior (week designation corresponds to mouse age when the behavior was observed). b. The eigenvector of the first principal component, representing 42% of the variation of the data. […]
finally washed three times with RIPA buffer. Finally, beads were resuspended in 20 µL of Laemmli […]
The effect of peptides on GTPase activity of Drp1 was measured by incubating recombinant Drp1 […]
for 1 hour at 37 °C. GTPase activity was measured using a colorimetric GTPase assay kit (Novus Biologicals, CO, USA) as instructed by the manufacturer. […]

YGRKKRRQRRRGSGIIQLPEIVVV-NH2 (C-terminus assumed) [P259]
no effect: expression levels of both fission and fusion proteins | mitophagy | overall mitochondrial content
